Measurements as given in PubChem BioAssay AID1996.
In brackets after ≈: the same amount, converted by molar mass.

details: buffer; pH 7.4; 200.0 µM

Compound	solubility kinetic [mg/mL]
CC(C)N1CC(COc2ccc(Br)cc2)OC1=O (stereo unspecified)	0.0451 (≈ 144 µM)
O=C1NC(c2ccc(Cl)c([N+](=O)[O-])c2)Nc2ccccc21 (stereo unspecified)	0.0077 (≈ 25.4 µM)
O=C(Nc1ccccc1O)c1csc2c1CCCC2	0.0022 (≈ 8.05 µM)
CCOC(=O)CN1C(=O)c2ccccc2Sc2ncccc21	> 0.0472
COc1ccc2c(c1)C(NC(C)=O)C(=O)N2CCc1ccccc1 (stereo unspecified)	0.0466 (≈ 144 µM)
Cc1cc(NS(=O)(=O)c2ccc(NC(=O)COc3ccc(C#N)cc3)cc2)nc(C)n1	> 0.0656
CCCOC(=O)Cn1cnc2scc(-c3ccc(C)cc3)c2c1=O	0.0172 (≈ 50.2 µM)
CCOC(=O)c1ccc(NC(=O)c2cc(C)nc3ccccc23)cc1	< 0.0004
NS(=O)(=O)c1ccc(CNC(=O)CSc2nc3ccc(Cl)cc3[nH]2)cc1	0.0103 (≈ 25.1 µM)
NS(=O)(=O)c1ccc(NC(=O)c2ccc3c(c2)OCO3)cc1	< 0.0003
CN(C(=O)CSc1nccc(=O)[nH]1)C1CCCCC1	> 0.0422
COc1cc2c(cc1OC)CN(C(=O)c1cc(Cl)nc(Cl)c1)CC2	0.027 (≈ 73.5 µM)
COCCCNC(=O)c1cc2c(=O)n3cccc(C)c3nc2s1	0.0063 (≈ 19 µM)
O=C1CCc2ccc(OCCCCN3CCN(c4cccc(Cl)c4Cl)CC3)cc2N1	< 0.0003
COc1ccc(Cl)cc1C(=O)OCC(=O)Nc1sccc1C(N)=O	0.0066 (≈ 17.9 µM)
O=C(COC(=O)C1CCCC1)NCc1ccc(Cl)cc1	> 0.0444
CCn1cc(C(=O)OC)c(=O)c2ccc(C)nc21	0.0364 (≈ 148 µM)
CC(=O)c1cccc(NC(=O)c2ccc3ccccc3c2)c1	0.0019 (≈ 6.57 µM)
Cc1ccccc1-n1ccnc1SCC(=O)NCc1ccco1	> 0.0491
O=C(CNC1CCCCC1)Nc1ccc(Cl)cc1	0.038 (≈ 142 µM)
O=C(NCC(O)c1ccccc1)Nc1cccs1 (stereo unspecified)	> 0.0393
CCn1ccc(C(=O)N2CCN(c3ncccn3)CC2)n1	> 0.043
CC(=O)c1ccc(NC(=S)NC(=O)Cc2ccc(Cl)cc2)cc1	0.0004 (≈ 1.15 µM)
COCCNC(=O)c1cc(C(=O)CC(C)C)c[nH]1	> 0.0378
CCOc1ccc(NC(=O)CSc2ncn[nH]2)cc1	> 0.0417

Compound	solubility kinetic [mg/mL]
Cc1sc2ncnc(SCC(=O)N3CCOCC3)c2c1C	0.0393 (≈ 122 µM)
Cc1cc(Nc2ccc([N+](=O)[O-])cc2)c2ccccc2n1	0.0006 (≈ 2.15 µM)
O=[N+]([O-])c1cc(CN2CCC(O)CC2)ccc1Cl	0.0389 (≈ 144 µM)
O=Cc1cnc(N2CCN(Cc3ccccc3)CC2)s1	> 0.0431
COc1cnc(-c2ccccc2)nc1OC	0.0191 (≈ 88.3 µM)
O=[N+]([O-])c1cc(S(=O)(=O)NCCN2CCOCC2)ccc1Cl	> 0.0525
O=C(Nc1ccccc1)OCCCc1ccccc1	0.0097 (≈ 38 µM)
CC(C)N1CCN(CCCc2ccccc2)CC1CCO (stereo unspecified)	> 0.0436
CCOC(=O)c1c(C)[nH]c(C(=O)COC(=O)c2cc(C)oc2C)c1C	0.003 (≈ 8.64 µM)
CC(=O)Nc1ccc2c(c1)CCCC2=O	0.0302 (≈ 149 µM)
COc1ccc(C)cc1S(=O)(=O)Nc1ccncc1	> 0.0417
COCC(=O)Nc1ccccc1-c1ccccc1	> 0.0362
Cc1nc(N2CCOCC2)[nH]c(=O)c1[N+](=O)[O-]	0.0331 (≈ 138 µM)
CCCCC(=O)Nc1ccc(NC(=O)c2cnccn2)cn1	> 0.0449
Cc1cc(Cl)ccc1NC(=O)CCN1C(=O)NC(C)(C)C1=O	> 0.0486
Cc1nc(SCC(=O)NCC2CCCO2)c2c(C)c(C)sc2n1 (stereo unspecified)	> 0.0527
CC(Sc1nccn1C)C(=O)c1ccc(Br)cc1 (stereo unspecified)	0.0429 (≈ 132 µM)
COC(=O)CC1C(=O)NCCN1C(=S)Nc1ccccc1Cl (stereo unspecified)	> 0.0513
O=C(NCc1cccc(C(F)(F)F)c1)c1ccc2c(c1)OCCO2	0.0061 (≈ 18.1 µM)
CC1CCC(NC(=O)CCN2C(=O)C3CC=CCC3C2=O)CC1 (stereo unspecified)	> 0.0478
OC(CCN1CCC2(CC1)OCCO2)C(F)(F)F (stereo unspecified)	> 0.0404
Cc1ccc(C)c(NC(=S)N2CCN(c3ccccn3)CC2)c1	0.0141 (≈ 43.2 µM)
Cc1cc(C=O)c(C)n1C1CC1	0.0176 (≈ 108 µM)
CN(C)Cc1ccccc1C(O)(c1ccccc1)c1ccccc1	0.0012 (≈ 3.78 µM)
Cc1cc(Br)c(NC(=O)COC(=O)c2ccc[n+]([O-])c2)c(Br)c1	> 0.0666

Compound	solubility kinetic [mg/mL]
Cc1cc2ccccn2c1C(=O)c1cccc(F)c1	0.0049 (≈ 19.3 µM)
COc1ccc(N(C)C(=S)Nc2ccc3nc(C)c(C)nc3c2)cc1	0.0041 (≈ 11.6 µM)
CC1CCCN(C(=O)CN2C(=O)NC(C)(c3ccc4ccccc4c3)C2=O)C1 (stereo unspecified)	> 0.0569
CCOc1ncccc1C(=O)OCc1cccc([N+](=O)[O-])c1	0.0005 (≈ 1.65 µM)
CC(C)NC(=O)C(=O)NCc1ccccn1	> 0.0332
Cc1nc([N+](=O)[O-])cn1CC(O)c1ccc(F)cc1 (stereo unspecified)	> 0.0398
O=C(NC(=S)Nc1cccc(O)c1)C1CCCCC1	> 0.0418
COC(=O)c1ccc(N/C=C/C(=O)c2ccccc2)cc1	0.0015 (≈ 5.33 µM)
Cc1cccc(NC(=O)c2cccc(C(=O)Nc3cccc(C)n3)c2)n1	0.0009 (≈ 2.6 µM)
COc1ccc(CNC(=O)COC(=O)c2cc3ccccc3cc2O)cc1OC	0.0259 (≈ 65.5 µM)
CC1CCN(C(=O)COC(=O)c2ccc(Cl)nc2)CC1	> 0.0445
Cc1cc(NC(=O)Nc2ccc(Cl)c(Cl)c2)no1	< 0.0002
CN(C)CCCNC(=S)Nc1ccc(Br)cc1	> 0.0474
O=C(/C=C/c1c(F)cccc1Cl)NCc1ccc2c(c1)OCO2	< 0.0007
OCC1(Cc2ccccc2)CCN(CCCC2CCCC2)CC1	> 0.0473
COc1ccc(NS(=O)(=O)c2ccc(F)cc2F)cn1	0.0433 (≈ 144 µM)
Cc1cc(C(=O)NN=C2CCCC2)c2ccccc2n1	> 0.0401
Fc1ccc(-c2ncc3ccccn23)cc1	0.0143 (≈ 67.4 µM)
Cc1c(-c2csc(N)n2)c2ccccc2n1C	0.0304 (≈ 125 µM)
O=C(NCC(c1ccco1)N1CCOCC1)c1cccc(Cl)c1 (stereo unspecified)	> 0.0502
Cc1cc(NC(=O)CSc2nccn2-c2ccc([N+](=O)[O-])cc2)no1	0.0338 (≈ 94.1 µM)
CN(NC1OC(=O)c2ccccc21)c1ccccc1[N+](=O)[O-] (stereo unspecified)	> 0.0449
NS(=O)(=O)c1cccc(NC(=O)COC(=O)/C=C/c2nc3ccccc3s2)c1	0.0228 (≈ 54.6 µM)
O=C(COC(=O)Cc1ccc(Br)cc1)Nc1ccc(Cl)cn1	0.0039 (≈ 10.2 µM)
Cc1ccc(NC(=O)CN2C(=O)CNC2=O)cc1	> 0.0371

Compound	solubility kinetic [mg/mL]
CC(C)(C)C(=O)Nc1ccc(S(=O)(=O)N2CCCC2)cc1	> 0.0466
COc1ccc(C(=O)NCCNC(=O)c2ccc(C)nc2)cc1	> 0.047
CCCCN(CCCC)c1ncnc2nc[nH]c12	0.0298 (≈ 120 µM)
COc1ccc(CNC(=O)COC(=O)c2ccccn2)cc1	> 0.045
O=c1[nH]c(=O)n(C2OC(CO)C(O)C2O)cc1Br (stereo unspecified)	> 0.0485
O=C(CCN1C(=O)C2CC=CCC2C1=O)NC1CCCCC1 (stereo unspecified)	> 0.0457
C=CCN(C(=O)c1ccccc1)C1CCS(=O)(=O)C1 (stereo unspecified)	0.0374 (≈ 134 µM)
Cc1c(C)n(Cc2ccccc2)c2ncnc(NCCO)c12	0.0412 (≈ 139 µM)
Cc1ccc(SCC(=O)N=C2NC(=O)CS2)cc1	0.0359 (≈ 128 µM)
CCCCOc1ccc(C2=CSC3=NCCN23)cc1[N+](=O)[O-]	> 0.0479
O=C(Nc1c(C(=O)O)[nH]c2ccccc12)c1cccc(C(F)(F)F)c1	> 0.0522
Cc1cccc(OCC(=O)NCCNC(=O)c2cccnc2)c1	> 0.047
Brc1c(-c2ccc3c(c2)OCO3)nc2ncccn12	0.0388 (≈ 122 µM)
CCc1nc(Nc2ccc(F)cc2)c2oc3ccccc3c2n1.Cl	0.0008
Cc1nc(SCC(=O)O)c(C#N)c(-c2ccco2)c1C(=O)N(C)C	> 0.0518
O=C(NCCNC(=O)c1cccc(O)c1)c1cccc(O)c1	> 0.045
O=Cc1c(NCCN2CCOCC2)c2ccccc2[nH]c1=O	> 0.0452
CSc1ccccc1NC(=O)CCc1ccccc1	0.0355 (≈ 131 µM)
Cc1ccc(NCCC(=O)c2ccccc2)cc1Cl	< 0.0006
CCCCNc1nc2cccnc2s1	0.0304 (≈ 147 µM)
Cc1ccc(C(C)C)c(OCCCN2CCc3ccccc3C2)c1.Cl	0.0031
COCCNC(=S)Nc1ccccc1Cc1ccccc1	0.0137 (≈ 45.6 µM)
CN1CCN(C(=O)/C=C/c2ccc(Cl)c(Cl)c2)CC1	0.041 (≈ 137 µM)
O=C(Cc1ccccc1[N+](=O)[O-])NCCC1=CCCCC1	0.0267 (≈ 92.6 µM)
Oc1ccccc1N1CCN(C(=S)NCc2ccccc2)CC1	0.0224 (≈ 68.4 µM)

Compound	solubility kinetic [mg/mL]
Cc1cccc(NS(=O)(=O)c2c(C)noc2C)c1	> 0.0399
COc1ccc(C(=O)n2c(N)nc3ccccc32)cc1OC.Cl	0.0109
COc1ccc(CC(=O)Nc2cccc3c2CCCC3)cc1	0.0018 (≈ 6.09 µM)
COC(=O)C1(C(C[N+](=O)[O-])c2ccc(C)cc2)C(=O)NCC1c1ccco1 (stereo unspecified)	> 0.0559
CC(C)(C)c1ccc(N=C2SCC(=O)N2Cc2cccs2)cc1	0.0004 (≈ 1.16 µM)
O=C(Cc1ccc(F)cc1)NC1CCCCCC1	> 0.0374
COCCOc1ccc(C(F)(F)F)cc1NC(=O)COC(=O)c1ccc(N2CCCC2=O)cc1	0.003 (≈ 6.24 µM)
Cc1ccc(NC(=S)NC(=O)C2CCCC2)c(Br)c1	0.0042 (≈ 12.3 µM)
COc1cccc(CNC(=O)CCCc2cn(C)c3ccccc23)c1	0.0061 (≈ 18.1 µM)
CCCCc1ccc(NC(=O)N[C@@H](CC(C)C)C(=O)O)cc1	> 0.046
CCOC(=O)N(C)S(=O)(=O)c1ccccc1[N+](=O)[O-]	0.0429 (≈ 149 µM)
COCc1c(C(=O)OCc2c(C)noc2C)oc2ccccc12	0.0332 (≈ 105 µM)
COc1cc(C)nc(-n2nc(C)cc2OC)n1	> 0.0351
O=C(CNC(=O)c1ccco1)Nc1ccc(F)c(Cl)c1	0.0025 (≈ 8.43 µM)
Cc1ccnc(NC(=O)c2cc3cc(F)ccc3s2)c1	0.0052 (≈ 18.2 µM)
CNCCc1c[nH]c2ccc(O)cc12.O=C(O)C(=O)O	> 0.042
Cc1cccc(C(=O)OCC(=O)N(C)c2ccccc2)c1C	> 0.0446
Cn1c(=O)n(CC(N)=O)c(=O)c2c1nc(Br)n2Cc1ccccc1	> 0.0588
O=C(Nc1ccc(F)c([N+](=O)[O-])c1)C(=O)c1c(O)[nH]c2ccccc12	> 0.0515
O=C(CN1C(=O)c2cccc3cccc(c23)C1=O)N1CCOCC1	> 0.0487
CC(=O)c1c(C)[nH]c(C(=O)N2CC(C)CC(C)C2)c1C (stereo unspecified)	> 0.0415
